Test results published in publication PMC6057649, “Development of NanoLuc-PEST expressing Leishmania mexicana as a new drug discovery tool for axenic- and intramacrophage-based assays” (PLoS Neglected Tropical Diseases, 2018).

System: NanoLuc-PEST expressing L. mexicana axenic amastigotes
Experiment: microbe, parasite or virus in culture
Assay type: cell-based
Conditions: for Relative Bioluminescence (%): 72 hours, relative to DMSO only control, n = 4; for EC50: hit compounds from the axenic amastigote screen, S3 Table, read-out: EC50, Axenic Amastigotes

| Compound | Relative Bioluminescence (%) (2 µM compound) | Relative Bioluminescence (%) (10 µM compound) | EC50 [nM] |
| --- | --- | --- | --- |
| COc1ccccc1OCCCCn1c(C2CC2)nc2ccccc21 [MMV676474] | 84.28 | 88.48 | – |
| Cc1cc(C)cc(COc2ccc3c(C)c(CCC(=O)O)c(=O)oc3c2C)c1 [MMV676476] | 1.36 | -0.27 | 580 |
| O=C(C1CCN(c2nnc(-n3cccc3)s2)CC1)N1CCC(Cc2ccccc2)CC1 [MMV676478] | 93.56 | 56.18 | – |
| COC(=O)c1c(NC(=O)c2cc3ccccc3oc2=O)sc2c1CCN(Cc1ccccc1)C2 [MMV676480] | 96.73 | 61.83 | – |
| O=C(Nc1n[nH]c(=S)s1)c1cc(Br)ccc1Cl [MMV676492] | 60.28 | 23.83 | – |
| O=C(Nc1nnc(-c2ccc(Cl)s2)o1)c1ccc(Cl)s1 [MMV676501] | -0.04 | -0.69 | 300 |
| Cc1ccc2oc(-c3cc(NC(=O)Cc4ccccc4)ccc3Cl)nc2c1 [MMV676509] | 92.05 | 59.65 | – |
| O=C(Nc1nc(-c2ccccn2)cs1)c1cncn1-c1ccccc1 [MMV676512] | 15.66 | -0.58 | – |
| O=C(c1cc2ccccc2o1)N1CCN(Cc2ccc3c(c2)OCO3)CC1 [MMV676520] | 56.86 | 68.82 | – |
| Nc1cccnc1Nc1ccc(Cl)cc1 [MMV676524] | 60.00 | 65.52 | – |
| COc1ccc(-c2cc(NC(=O)c3ccc(F)cc3Cl)ccc2OC)cc1 [MMV676526] | 103.78 | 46.48 | – |
| Cc1cccc(NC(=O)c2cc(S(=O)(=O)N(C)c3ccc(F)cc3)ccc2Cl)n1 [MMV676528] | 77.13 | 57.74 | – |
| COCC(C)NC(=O)CSc1ncnc2sc(-c3ccccc3)cc12 (centres unmarked) [MMV676536] | 84.93 | 103.25 | – |
| O=C(NCCc1c[nH]c2ccccc12)c1cc2ccccc2oc1=O [MMV676539] | 54.78 | 62.48 | – |
| COc1ccc(Nc2ccccc2NC(=O)c2ccc(=O)[nH]c2)cc1 [MMV676554] | 97.83 | 103.74 | – |
| Cc1nnc(NCc2cccc(Cl)c2)c2ccccc12 [MMV676555] | 104.08 | 90.53 | – |
| CC1=NN(c2nc3ccccc3s2)C(=O)C1Cc1cccc2ccccc12 (centres unmarked) [MMV676558] | -0.86 | -0.77 | 470 |
| COc1ccc(-c2nc(-c3cccc(NC(=O)Cc4ccc(F)cc4)c3)no2)cc1OC [MMV676571] | 102.29 | 85.94 | – |
| O=C(NC1=NCCS1)c1sc2cc(F)ccc2c1Cl [MMV676584] | 83.30 | 89.36 | – |
| Nc1c2c(nc3sc4c(c13)CCCC4)CCCC2 [MMV676588] | 70.58 | 69.13 | – |

| Compound | Relative Bioluminescence (%) (2 µM compound) | Relative Bioluminescence (%) (10 µM compound) | EC50 [nM] |
| --- | --- | --- | --- |
| O=C(CCC1CCCCC1)Nc1cccc(-c2nnc(-c3ccco3)o2)c1 [MMV676589] | 54.08 | 15.64 | – |
| CCCn1nnc(NC(=O)COc2ccc(C3CCCCC3)cc2)n1 [MMV676597] | 85.91 | 73.07 | – |
| CC(C)(C)n1nc(Cc2cccc3ccccc23)c2c(N)ncnc21 [MMV676599] | 80.19 | 31.83 | – |
| CO[C@@H](C(=O)N1Cc2[nH]nc(NC(=O)c3ccc(N4CCN(C)CC4)cc3)c2C1)c1ccccc1 [MMV676600] | 110.66 | 114.36 | – |
| CNC(=O)c1nn(C)c2c1C(C)(C)Cc1cnc(Nc3ccc(N4CCN(C)CC4)cc3)nc1-2 [MMV676602] | 91.95 | 77.62 | – |
| C[C@H]1COC2(CCN(c3nc(=O)c4cc(C(F)(F)F)cc([N+](=O)[O-])c4s3)CC2)O1 [MMV676603] | 83.14 | 75.26 | – |
| Cc1ncc(-c2ccnc(Nc3ccc(S(C)(=O)=O)cc3)n2)n1C(C)C [MMV676604] | 81.35 | 33.57 | – |
| CC1(O)CC(c2nc(-c3ccc4ccc(-c5ccccc5)nc4c3)c3c(N)nccn23)C1 (centres unmarked) [MMV676605] | 81.06 | 84.63 | – |
| O=C(c1ccc(NCCO)cc1)C1C[C@H]1c1ccc(Cl)cc1 (some centres unmarked) [MMV676877] | 100.77 | 116.30 | – |
| CCn1cnc2c(Nc3cc(F)cc(F)c3)nc(C#N)nc21 [MMV676881] | 76.51 | 54.00 | – |
| NC(=O)c1cc(-c2ccsc2)ccc1OCCOc1ccccc1 [MMV687138] | 56.61 | 48.25 | – |
| CCCCS(=O)(=O)Nc1ccc2cnn(C)c2c1 [MMV687145] | 132.61 | 130.77 | – |
| Cc1cc(C)c2cc(C(=O)NC3CCCCCCC3)[nH]c2c1 [MMV687146] | 98.04 | 84.77 | – |
| COc1ccc(Cn2cnc3c(-c4ccco4)nc(Cl)nc32)cc1 [MMV687170] | 107.56 | 104.36 | – |
| O=C(C1CCN(c2cc(-n3cccc3)ncn2)CC1)N1CCc2ccccc2C1 [MMV687172] | 73.27 | 54.36 | – |
| CCc1ccc([C@@H]2C[C@H](C(F)(F)F)n3ncc(C(=O)NCc4ccc(OC)cc4)c3N2)cc1 [MMV687180] | 49.23 | 1.44 | – |
| COc1ccc2nc(C)cc(OCC(=O)Nc3ccccc3OC)c2c1 [MMV687188] | 75.17 | 98.10 | – |
| COc1ccc2nc(C)cc(OCC(=O)NCc3ccccc3)c2c1 [MMV687189] | 92.36 | 81.16 | – |
| CC(C)(C(=O)Nc1ccc(F)cc1)n1cc(-c2ccccc2F)cn1 [MMV687239] | 106.04 | 118.80 | – |
| NC(=O)c1cc(Br)ccc1OCCOc1ccccc1 [MMV687243] | 65.34 | 78.50 | – |

| Compound | Relative Bioluminescence (%) (2 µM compound) | Relative Bioluminescence (%) (10 µM compound) | EC50 [nM] |
| --- | --- | --- | --- |
| CN1CCN(S(=O)(=O)c2ccc(-c3ccc4c(Nc5ccc6n[nH]nc6c5)ccnc4c3)cc2)CC1 [MMV687246] | 103.95 | 82.04 | – |
| Nc1nc2cc(-c3cncc(Oc4ccc(F)cc4)c3)ccc2[nH]1 [MMV687248] | 81.54 | 88.99 | – |
| Cn1c(=O)c2c(S(C)(=O)=O)snc2n(C)c1=O [MMV687251] | -4.37 | -0.24 | 480 |
| CCCCc1ccc(C(=O)Nc2nccc3ccccc23)nc1 [MMV687254] | 63.72 | -0.07 | – |
| CC(C)=CCC/C(C)=C\CNCCNC1C2CC3CC(C2)CC1C3 (centres unmarked) [MMV687273] | 68.48 | 81.32 | – |
| CCc1nc2ccc(Cl)cn2c1C(=O)NCc1ccc(N2CCC(c3ccc(OC(F)(F)F)cc3)CC2)cc1 [MMV687696] | 113.56 | 57.87 | – |
| O=C(NCc1cc(Cl)cc(Cl)c1)c1c(C(F)(F)F)nc2ccccn12 [MMV687699] | 81.42 | 62.05 | – |
| Nc1ncnc2c1ncn2[C@@H]1O[C@H](COS(=O)(=O)NC(=O)c2ccccc2O)[C@@H](O)[C@H]1O [MMV687700] | 67.55 | 61.64 | – |
| COc1cccc(-c2nc3c(N4CCCC4)cccc3n2CC2CCCN2)n1 (centres unmarked) [MMV687703] | 48.25 | 76.96 | – |
| c1ccc(Oc2ccc(-c3cc(N4CCNCC4)[nH]n3)cc2)cc1 [MMV687706] | 85.99 | 75.35 | – |
| O=C1O[C@@H](CO)CN1c1cc(F)c(C2=CCN(Cc3ccccc3)CC2)c(F)c1 [MMV687729] | 76.47 | 62.67 | – |
| CCCCOC(=O)Nc1cc2[nH]c(C3CCCCC3)nc2cc1N1CCCC1 [MMV687730] | 85.81 | 52.52 | – |
| Cc1cc(OCC(=O)NCc2ccccc2)c2cc(Br)ccc2n1 [MMV687747] | 76.47 | 30.38 | – |
| c1ccc(C[C@@H]2CN(c3nccc(Oc4ccc(-n5ccnc5)cc4)n3)CCN2)cc1 [MMV687749] | 66.01 | 56.67 | – |
| c1ccc(Oc2ccc(-c3cc(C4CCOCC4)[nH]n3)cc2)cc1 [MMV687762] | 41.49 | 31.40 | – |
| Cc1cnc(N2CCN[C@@H](Cc3ccccc3)C2)nc1Oc1ccc(-n2ccnc2)cc1 [MMV687765] | 69.43 | 74.28 | – |
| CC1(C)OB(O)c2ccc(C3=NOC(c4cc(Cl)c(F)c(Cl)c4)(C(F)(F)F)C3)cc21 (centres unmarked) [MMV687775] | 54.77 | 7.40 | – |
| Cc1cc(C2=NOC(c3cc(Cl)c(F)c(Cl)c3)(C(F)(F)F)C2)ccc1C(=O)NCc1ccc2c(c1)C(C)(C)OB2O (centres unmarked) [MMV687776] | 57.43 | -1.15 | – |
| CC1(C)Cc2c(c(N3CCOCC3)nc3snc(Br)c23)CO1 [MMV687794] | 97.30 | 72.05 | – |
